ChEMBL document CHEMBL1155621, “Asitrocin, (2,4)-cis- and trans-asitrocinones: novel bioactive mono-tetrahydrofuran acetogenins from Asimina triloba seeds” (J Nat Prod, 2000)
Converted amounts (≈) assume the structure as drawn.

How the values were obtained:
MCF7 = assay: Cytotoxicity against human MCF7 cells after 7 days by MTT assay; type: functional; details: MCF7, 168 h, read-out: ED50 (the source's name)
HT-29 = assay: Cytotoxicity against human HT29 cells after 7 days by MTT assay; type: functional; details: HT-29, 168 h, read-out: ED50 (the source's name)
MIA PaCa-2 = assay: Cytotoxicity against human MiaPaCa2 cells after 7 days by MTT assay; type: functional; details: MIA PaCa-2, 168 h, read-out: ED50 (the source's name)
A549 = assay: Cytotoxicity against human A549 cells after 7 days by MTT assay; type: functional; details: A549, 168 h, read-out: ED50 (the source's name)
PC-3 = assay: Cytotoxicity against human PC3 cells after 7 days by MTT assay; type: functional; details: PC-3, 168 h, read-out: ED50 (the source's name)
[1] = Toxicity in brine shrimp; type: organism-based; details: artemia, in vivo
A498 = assay: Cytotoxicity against human A498 cells after 7 days by MTT assay; type: functional; details: A498, 168 h, read-out: ED50 (the source's name)

SMILES	EC50 (MCF7)	EC50 (HT-29)	EC50 (MIA PaCa-2)	EC50 (A549)	EC50 (PC-3)	LC50 [1]	EC50 (A498)
CCCCCCCCCCCC[C@@H](O)[C@H]1CC[C@H]([C@@H](O)CC[C@H](O)CCCCCCC[C@@H](O)CC2=C[C@H](C)OC2=O)O1 [ASITROCIN]	3280 ng/mL (≈ 5500 nM)	2.99 ng/mL (≈ 5.01 nM)	0.0148 ng/mL (≈ 0.0248 nM)	118 ng/mL (≈ 198 nM)	1.22 ng/mL (≈ 2.04 nM)	63 ng/mL (≈ 106 nM)	79.2 ng/mL (≈ 133 nM)
COc1cccc2c1C(=O)c1c(O)c3c(c(O)c1C2=O)C[C@@](O)(C(=O)CO)C[C@@H]3O[C@H]1C[C@H](N)[C@H](O)[C@H](C)O1 [DOXORUBICIN]	–	–	6.1 ng/mL (≈ 11.2 nM)	–	–	–	–
